Laboratory results published in patent US20040249124A1 (priority 2001, published 2004).

Tested on: antibody MBS-3 binding to p17
Assay: Competitive ELISA: displacement of MBS-3 binding to p17 absorbed in solid phase

Substance: NH2-Ser-Gly-Gly-Glu-Leu-Asp-Arg-Trp-Glu-Lys-Ile-Arg-Leu-Arg-COOH (H-SGGELDRWEKIRLR-OH) [SEQ ID NO: 2]
- displacing the binding of the antibody MBS-3 to p17: efficacious in displacing
